Laboratory results published in ChEMBL document CHEMBL1155255, “Ruthenium complexes endowed with potent anti-Trypanosoma cruzi activity: Synthesis, biological characterization and structure-activity relationships” (Bioorg Med Chem, 2009).

Legend:
Trypanosoma cruzi [1] = assay: Antitrypanosomal activity against Trypanosoma cruzi Y epimastigote form after 11 days by Trypan blue exclusion method; type: functional, organism-based; settings: 264 h
[2] = Cytotoxicity against BALB/c mouse splenocytes after 24 hrs by [3H]thymidine incorporation assay; type: cell-based; settings: splenocyte
Trypanosoma cruzi [3] = assay: Antitrypanosomal activity against Trypanosoma cruzi Y trypomastigote form after 24 hrs by Trypan blue exclusion method; type: functional, organism-based

Compound | IC50 (Trypanosoma cruzi [1]) | IC50 (Trypanosoma cruzi [3]) | Activity [2]
CCC1SC(N/N=C\CSc2ccccc2)=NC1=O (stereo unspecified) | 0.3 µM | 48.2 µM | > 100 µg/mL
CC1CS(=O)(=O)CCN1/N=C/c1ccc([N+](=O)[O-])o1 (stereo unspecified) [NIFURTIMOX] | 1.9 µM | – | 1 µg/mL
O=C(Cn1ccnc1[N+](=O)[O-])NCc1ccccc1 [BENZNIDAZOLE] | 6.6 µM | – | 25 µg/mL
Cc1ccc(SC/C=N\NC2=NC(=O)C(C)S2)cc1 (stereo unspecified) | 63.4 µM | 84.8 µM | > 100 µg/mL
O=C1CSC(N/N=C\CSc2ccc(Cl)cc2)=N1 | 43.9 µM | 82.4 µM | > 100 µg/mL
O=C1CSC(N/N=C\CCSc2ccccc2)=N1 | 2.9 µM | 10 µM | > 100 µg/mL

Continued by falling IC50 (Trypanosoma cruzi [1]), values first:

IC50 (Trypanosoma cruzi [1]) | IC50 (Trypanosoma cruzi [3]) | Compound | Activity [2]
92.3 µM | 20 µM | Cc1ccc(SC/C=N\NC2=NC(=O)CS2)cc1 | > 100 µg/mL
83.3 µM | – | C/C(CSc1ccccc1)=N/NC1=NC(=O)C(C)S1 (stereo unspecified) | > 100 µg/mL
42.9 µM | – | O=C1CSC(N/N=C\CSc2ccc(Br)cc2)=N1 | > 100 µg/mL
35 µM | 7.8 µM | O=C1CSC(N/N=C\CSc2ccccc2)=N1 | > 100 µg/mL
